This note sets out measurements from patent US20240336630A1, “MAP4K1 INHIBITORS” (Blueprint Medicines Corporation, priority 2021, published 2024).

pIC50: −log10 of the molar value.

T1 sequence (Q92918 whole entry): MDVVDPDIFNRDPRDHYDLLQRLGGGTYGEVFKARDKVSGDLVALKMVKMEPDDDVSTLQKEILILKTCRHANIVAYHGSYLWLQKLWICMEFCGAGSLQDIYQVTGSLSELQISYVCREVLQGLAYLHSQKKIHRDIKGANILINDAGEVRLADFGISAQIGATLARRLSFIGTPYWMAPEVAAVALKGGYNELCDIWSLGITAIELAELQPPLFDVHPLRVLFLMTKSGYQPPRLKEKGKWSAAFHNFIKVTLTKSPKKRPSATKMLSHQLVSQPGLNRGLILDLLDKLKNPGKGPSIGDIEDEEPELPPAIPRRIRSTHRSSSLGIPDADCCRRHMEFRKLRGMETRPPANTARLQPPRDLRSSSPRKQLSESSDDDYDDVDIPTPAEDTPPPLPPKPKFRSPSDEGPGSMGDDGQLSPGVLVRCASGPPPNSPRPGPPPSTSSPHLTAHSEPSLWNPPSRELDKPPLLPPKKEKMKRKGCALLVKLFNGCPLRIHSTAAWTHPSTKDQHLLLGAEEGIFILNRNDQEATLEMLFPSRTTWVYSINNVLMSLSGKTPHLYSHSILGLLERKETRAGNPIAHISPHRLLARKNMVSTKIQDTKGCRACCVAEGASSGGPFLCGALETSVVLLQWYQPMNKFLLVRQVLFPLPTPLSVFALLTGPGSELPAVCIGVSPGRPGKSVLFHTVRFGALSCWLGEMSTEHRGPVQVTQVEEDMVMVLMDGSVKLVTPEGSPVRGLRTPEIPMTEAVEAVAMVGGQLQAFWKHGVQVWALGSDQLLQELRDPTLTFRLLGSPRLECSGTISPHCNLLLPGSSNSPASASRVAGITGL

The test addresses T1, MAP4K1 (HPK1) (Homo sapiens, UniProt Q92918).
T1 construct: purchased Invitrogen
The test can be described thus: Inhibition of MAP4K1 biochemical enzymatic activity (EZReader 2 electrophoretic mobility shift). Conditions: HPK1 (Invitrogen), S6K2tide 1.5 μM, 120 min; ATP 26 μM or 1000 μM, not stated which for Table 3. The text has this:
MAP4K1 (HPK1) and relevant off-target enzymatic activity was monitored using the Perkin Elmer electrophoretic mobility shift technology platform—the EZReader 2. […] Within the linear, steady-state phase of the kinase enzymatic reaction, the mixed pool of phosphorylated (product) and non-phosphorylated (substrate) peptides was passed through the microfluidic system of the PerkinElmer EZ Reader 2, under an applied electric potential difference. The presence of the phosphate group on the product peptide provided a difference in mass and charge between that of the substrate peptide, resulting in a separation of the substrate and product pools in the sample (Perrin et al. 2010). As the product and substrate peptide mixture passes the lasers within the instrument, these pools are detected (λex=488 nm, λem=568 nm) and resolved as separate peaks. The ratio between these peaks reflects the activity of the compound at that concentration, in that well, under those conditions.
Inhibitors were dissolved in 100% DMSO at a stock concentration of 10 mM. A 100×, 10-point, 4-fold serial dilution of each inhibitor was created in 100% DMSO either manually or on a Hamilton STAR liquid handler, starting at a relevant concentration, usually 1 mM. A volume of 0.130 μL of each concentration was transferred to the relevant wells of a 384-well plate (Greiner 781 201) in duplicate using a TTPLabtech Mosquito nano-litre dispenser. Using a Multidrop Combi, the remaining constituents of the kinase reaction were added to the 130 nL of dosed compound as follows (see table below for final reaction details):
Enzyme activity assays at the ^APPKM for ATP or 1 mM ATP: In each well of a 384-well plate, 0.1-15 nM of untreated enzyme was incubated in a total of 13 μL of buffer (100 mM HEPES pH 7.5, 0.015% Brij 35, 10 mM MgCl2, 1 mM DTT) with 1.5 μM fluorescent peptide and 20-1000 μM ATP, at 25° C., for 60-180 minutes in the presence or absence of a dosed concentration series of compound (1% DMSO final concentration). The kinase reactions were stopped by the addition of 70 μl of Stop buffer (100 mM HEPES pH 7.5, 0.015% Brij 35, 35 mM EDTA and 0.2% of Coating Reagent 3 (Caliper Lifesciences)). The plates were read on a Caliper EZReader 2 as described above.
With `CC[C@@](C)(O)c1cnc(NC2CC2)c2cnc(Nc3ccc4c(n3)[C@@H](C)C(C)(C)OC4=O)cc12` (single isomer, unassigned) [Compound 28], the pIC50 was 8.52.

Regarding `CC[C@@](C)(O)c1cnc(NC2CC2)c2cnc(Nc3ccc4c(n3)[C@@H](C)C(C)(C)OC4=O)cc12` (single isomer, unassigned) [Compound 29], the pIC50 is 8.84.

Turning to `CC[C@@](C)(O)c1cnc(OC2CC2)c2cnc(Nc3ccc4c(n3)[C@@H](C)C(C)(C)OC4=O)cc12` (single isomer, unassigned) [Compound 30], the negative-log IC50 (pIC50) is 8.62.

For `CCOc1ncc([C@@](C)(O)C2CC2)c2cc(Nc3ccc4c(n3)[C@@H](C)C(C)(C)OC4=O)ncc12` (single isomer, unassigned) [Compound 32], the pIC50 is 7.81. Regarding `CCOc1ncc([C@@](C)(O)C2CC2)c2cc(Nc3ccc4c(n3)[C@@H](C)C(C)(C)OC4=O)ncc12` (single isomer, unassigned) [Compound 33], the negative-log IC50 (pIC50) is 9.25. Next, `COC[C@@](C)(O)c1cnc(OC2CC2)c2cnc(Nc3ccc4c(n3)[C@@H](C)[C@H](C)OC4=O)cc12` (single isomer, unassigned) [Compound 35]: 7.17; `COC[C@@](C)(O)c1cnc(OC2CC2)c2cnc(Nc3ccc4c(n3)[C@@H](C)[C@H](C)OC4=O)cc12` (single isomer, unassigned) [Compound 36]: 8.41; `CC[C@](C)(O)c1cnc(OC2CC2)c2cnc(Nc3ccc4c(n3)C3(CC3)C(C)(C)OC4=O)cc12` (single isomer, unassigned) [Compound 41]: 8.18. Next, `C[C@@H]1c2nc(Nc3cc4c([C@@](C)(O)C5CCC5)cnc(OC5CC5)c4cn3)ccc2C(=O)OC1(C)C` (single isomer, unassigned) [Compound 43]: 8.17; `C[C@@H]1c2nc(Nc3cc4c([C@@](C)(O)C5CCC5)cnc(OC5CC5)c4cn3)ccc2C(=O)OC1(C)C` (single isomer, unassigned) [Compound 44]: 8.82. For the compound `C[C@@H]1c2nc(Nc3cc4c([C@@](C)(O)C(F)(F)F)cnc(OC5CC5)c4cn3)ccc2C(=O)OC1(C)C` (single isomer, unassigned) [Compound 50], the negative-log IC50 (pIC50) is 8.35. Next, `C[C@@H]1c2nc(Nc3cc4c([C@@](C)(O)C(F)(F)F)cnc(OC5CC5)c4cn3)ccc2C(=O)OC1(C)C` (single isomer, unassigned) [Compound 51]: 7.91. Take `CC[C@@](C)(O)c1cnc(OCC(F)(F)F)c2cnc(Nc3ccc4c(n3)[C@@H](C)C(C)(C)OC4=O)cc12` (single isomer, unassigned) [Compound 52]: the pIC50 was 7.63. Next, `CC[C@@](C)(O)c1cnc(OCC(F)(F)F)c2cnc(Nc3ccc4c(n3)[C@@H](C)C(C)(C)OC4=O)cc12` (single isomer, unassigned) [Compound 53]: 8.43; `C[C@@H]1c2nc(Nc3cc4c([C@@](C)(O)C5CC5)cnc(OCC(F)(F)F)c4cn3)ccc2C(=O)OC1(C)C` (single isomer, unassigned) [Compound 54]: 7.77.

On to `C[C@@H]1c2nc(Nc3cc4c([C@@](C)(O)C5CC5)cnc(OCC(F)(F)F)c4cn3)ccc2C(=O)OC1(C)C` (single isomer, unassigned) [Compound 55], for which the pIC50 is 7.80. Next, `CC[C@H](O)c1cnc(OC2CN(S(C)(=O)=O)C2)c2cnc(Nc3ccc4c(n3)[C@@H](C)[C@H](C)OC4=O)cc12` (single isomer, unassigned) [Compound 58]: 8.60.

Turning to `CC[C@H](O)c1cnc(OC2CN(S(C)(=O)=O)C2)c2cnc(Nc3ccc4c(n3)[C@@H](C)[C@H](C)OC4=O)cc12` (single isomer, unassigned) [Compound 59], the pIC50 is 7.89. The value for `CC[C@@](C)(O)c1cnc(O[C@H]2C[C@@H](S(C)(=O)=O)C2)c2cnc(Nc3ccc4c(n3)[C@@H](C)[C@H](C)OC4=O)cc12` (single isomer, unassigned) [Compound 62] was 8.78; that for `CC[C@@H](O)c1cnc(OC2CN(S(C)(=O)=O)C2)c2cnc(Nc3ccc4c(n3)[C@@H](C)C(C)(C)OC4=O)cc12` (single isomer, unassigned) [Compound 63] was 8.53; that for `CC[C@@H](O)c1cnc(OC2CN(S(C)(=O)=O)C2)c2cnc(Nc3ccc4c(n3)[C@@H](C)C(C)(C)OC4=O)cc12` (single isomer, unassigned) [Compound 64] was 9.17.

As to `CC[C@@](C)(O)c1cnc(O[C@H]2C[C@@H](S(C)(=O)=O)C2)c2cnc(Nc3ccc4c(n3)[C@@H](C)C(C)(C)OC4=O)cc12` (single isomer, unassigned) [Compound 65], the pIC50 is 9.41. Next, `CC[C@@](C)(O)c1cnc(O[C@H]2C[C@@H](S(C)(=O)=O)C2)c2cnc(Nc3ccc4c(n3)[C@@H](C)C(C)(C)OC4=O)cc12` (single isomer, unassigned) [Compound 66]: 8.76; `CC[C@@](C)(O)c1cnc(O[C@H](C)C[C@@H](C)S(C)(=O)=O)c2cnc(Nc3ccc4c(n3)[C@@H](C)[C@H](C)OC4=O)cc12` (single isomer, unassigned) [Compound 67]: 9.18; `CC[C@@](C)(O)c1cnc(O[C@H](C)C[C@@H](C)S(C)(=O)=O)c2cnc(Nc3ccc4c(n3)[C@@H](C)[C@H](C)OC4=O)cc12` (single isomer, unassigned) [Compound 68]: 9.39.

With `CC[C@@](C)(O)c1cnc(O[C@H](C)C[C@@H](C)S(C)(=O)=O)c2cnc(Nc3ccc4c(n3)[C@@H](C)C(C)(C)OC4=O)cc12` (single isomer, unassigned) [Compound 69], the negative-log IC50 (pIC50) is 9.05. Next, `CC[C@@](C)(O)c1cnc(O[C@H](C)C[C@@H](C)S(C)(=O)=O)c2cnc(Nc3ccc4c(n3)[C@@H](C)C(C)(C)OC4=O)cc12` (single isomer, unassigned) [Compound 70]: 9.31; `CNc1ncc(C(C)(C)O)c2cc(Nc3ccnc(C(C)(C)C)n3)ncc12` [Compound 3]: 7.64; `COc1ncc(C(C)(C)O)c2cc(Nc3ccnc(C(C)(C)C)n3)ncc12` [Compound 4]: 8.63. The value for `COc1ccc(C(C)(C)O)c2cc(Nc3ccnc(C(C)(C)F)n3)ncc12` [Compound 5] was 7.74; that for `COc1ncc(C(C)(C)O)c2cc(Nc3ccnc(C(C)(C)F)n3)ncc12` [Compound 6] was 8.03; that for `COc1ncc(C(C)(C)O)c2cc(Nc3cnc(C#N)c(C(C)C)n3)ncc12` [Compound 7] was 7.76. The value for `COc1ncc(C(C)(C)O)c2cc(Nc3ccc4c(n3)CCOC4=O)ncc12` [Compound 8] was 8.33. As for `COc1ncc(C(C)(C)O)c2cc(Nc3ccnc(N4CC[C@@H]4C)n3)ncc12` [Compound 9], the pIC50 is 8.79. For the compound `COc1ncc(C(C)(C)O)c2cc(Nc3ccnc(N4CCC[C@@H]4C)n3)ncc12` [Compound 10], the pIC50 is 8.92. Next, `COc1ncc(C(C)(C)O)c2cc(Nc3cnc(C#N)c(N4CCC[C@@H]4C)n3)ncc12` [Compound 13]: 8.20; `CC1(C)CCc2nc(Nc3cc4c(C(C)(C)O)cnc(OC5CC5)c4cn3)ccc2C(=O)O1` [Compound 22]: 7.63; `C[C@@H]1OC(=O)c2ccc(Nc3cc4c(C(C)(C)O)cnc(OCC5(F)CC5)c4cn3)nc2[C@H]1C` [Compound 37]: 8.70. With `CC1(C)Cc2nc(Nc3cc4c(C5(O)CCOCC5)cnc(OC5CC5)c4cn3)ccc2C(=O)O1` [Compound 42], the pIC50 was 8.47. Next, `CC(=O)N1CC(Oc2ncc(C(C)(C)O)c3cc(Nc4ccc5c(n4)[C@@H](C)[C@H](C)OC5=O)ncc23)C1` [Compound 45]: 8.72; `CC1(C)Cc2nc(Nc3cc4c(C(C)(O)c5ccccc5)cnc(OC5CC5)c4cn3)ccc2C(=O)O1` (centres unmarked) [Compound 46]: 7.50.

As to `C[C@@H]1c2nc(Nc3cc4c(C(C)(O)C5CC5)cnc(OCC(F)F)c4cn3)ccc2C(=O)OC1(C)C` (some centres unmarked) [Compound 47], the pIC50 is 8.80. The value for `C[C@@H]1OC(=O)c2ccc(Nc3cc4c(C(C)(C)O)cnc(O[C@H]5C[C@@H](S(C)(=O)=O)C5)c4cn3)nc2[C@H]1C` [Compound 56] was 9.35; that for `C[C@@H]1OC(=O)c2ccc(Nc3cc4c(C(C)(C)O)cnc(OC5CN(S(C)(=O)=O)C5)c4cn3)nc2[C@H]1C` [Compound 57, (7S,8R)-2-((5-(2-Hydroxypropan-2-yl)-8-((1-(methylsulfonyl)azetidin-3-yl)oxy)-2,7-naphthyridin-3-yl)amino)-7,8-dimethyl-7,8-dihydro-5H-pyrano[4,3-b]pyridin-5-one] was 9.70.
